What follows are molecules tested against human APJ receptor (Homo sapiens (Human), UniProt P35414) (assay: [35S]GTPγS binding assay on membranes from CHO cells stably expressing human APJ receptor). Details: [35S]GTPγS SPA, read-out: Activity hAPJ SPA EC50 IP.
Assay type: biochemical
In short: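 Agonist-stimulated [35S]GTPγS binding measured on membranes of a stable human APJ CHO line, 90 min at room temperature, with GDP, MgCl2 and NaCl levels optimized beforehand. Means of independent runs fitted by non-linear regression to give EC50.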

Sequence of human APJ receptor (P35414 whole entry): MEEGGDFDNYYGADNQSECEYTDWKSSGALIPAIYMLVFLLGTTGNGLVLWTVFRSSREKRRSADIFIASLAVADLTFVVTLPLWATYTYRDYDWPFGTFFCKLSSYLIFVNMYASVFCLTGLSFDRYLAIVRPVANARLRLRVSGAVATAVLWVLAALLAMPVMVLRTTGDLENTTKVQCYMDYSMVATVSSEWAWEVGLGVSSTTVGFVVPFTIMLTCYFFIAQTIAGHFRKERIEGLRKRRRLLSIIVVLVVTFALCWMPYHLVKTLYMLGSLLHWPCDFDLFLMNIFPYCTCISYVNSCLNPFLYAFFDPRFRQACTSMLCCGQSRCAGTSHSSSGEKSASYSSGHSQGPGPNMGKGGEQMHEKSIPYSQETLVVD

In order of falling EC50:
1. COc1ncnc(OC)c1-n1c(NS(=O)(=O)[C@@H](C)[C@H](OC)c2ncc(Cl)cn2)nnc1C1CC2(COC2)C1 [Example 240.0, (1R,2S)-1-(5-chloro-2-pyrimidinyl)-N-(4-(4,6-dimethoxy-5-pyrimidinyl)-5-(2-oxaspiro[3.3]heptan-6-yl)-4H-1,2,4-triazol-3-yl)-1-methoxy-2-propanesulfonamide]  71 nM
2. COc1ncnc(OC)c1-n1c(NS(=O)(=O)[C@@H](C)[C@H](C)c2cnc(C)cn2)nnc1C1CCC1 [Example 88.0, (2S,3R)-N-(5-cyclobutyl-4-(4,6-dimethoxy-5-pyrimidinyl)-4H-1,2,4-triazol-3-yl)-3-(5-methyl-2-pyrazinyl)-2-butanesulfonamide]  42 nM
3. COCC1(n2c(NS(=O)(=O)[C@@H](C)[C@H](OC)c3ncc(Cl)cn3)nnc2C2CCC2)CC1 [Example 96.0]  30 nM
4. COc1ncnc(OC)c1-n1c(NS(=O)(=O)[C@@H](C)[C@H](OC)c2ncc(Cl)cn2)nnc1[C@H]1CC[C@@H](F)CC1 (single isomer, unassigned) [Example 176.0, (1R,2S)-1-(5-chloropyrimidin-2-yl)-N-(4-(4,6-dimethoxypyrimidin-5-yl)-5-((1s,4R)-4-fluorocyclohexyl)-4H-1,2,4-triazol-3-yl)-1-methoxypropane-2-sulfonamide or (1R,2S)-1-(5-chloropyrimidin-2-yl)-N-(4-(4,6-dimethoxypyrimidin-5-yl)-5-((1r,4S)-4-fluorocyclohexyl)-4H-1,2,4-triazol-3-yl)-1-methoxypropane-2-sulfonamide]  17 nM
5. COc1ncnc(OC)c1-n1c(NS(=O)(=O)[C@@H](C)[C@H](OC)c2ncc(Cl)cn2)nnc1[C@H]1CC[C@@H]1F (single isomer, unassigned) [Example 182.0, (1R,2S)-1-(5-chloropyrimidin-2-yl)-N-(4-(4,6-dimethoxypyrimidin-5-yl)-5-((1R,2S)-2-fluorocyclobutyl)-4H-1,2,4-triazol-3-yl)-1-methoxypropane-2-sulfonamide or (1R,2S)-1-(5-chloropyrimidin-2-yl)-N-(4-(4,6-dimethoxypyrimidin-5-yl)-5-((1S,2R)-2-fluorocyclobutyl)-4H-1,2,4-triazol-3-yl)-1-methoxypropane-2-sulfonamide]  10 nM
6. COc1cccc(OC)c1-n1c(NS(=O)(=O)[C@@H](C)[C@H](OC)c2ncc(C)cn2)nnc1[C@H]1C[C@H](Cl)C1 (single isomer, unassigned) [Example 192.0, (1R,2S)-N-(5-((1r,3S)-3-chlorocyclobutyl)-4-(2,6-dimethoxyphenyl)-4H-1,2,4-triazol-3-yl)-1-methoxy-1-(5-methylpyrimidin-2-yl)propane-2-sulfonamide or (1R,2S)-N-(5-((1s,3R)-3-chlorocyclobutyl)-4-(2,6-dimethoxyphenyl)-4H-1,2,4-triazol-3-yl)-1-methoxy-1-(5-methylpyrimidin-2-yl)propane-2-sulfonamide]  2.9 nM
7. COc1ncnc(OC)c1-n1c(NS(=O)(=O)[C@@H](C)[C@H](C)c2ncc(Cl)cn2)nnc1C1CCC1 [Example 85.0, (2S,3R)-3-(5-chloro-2-pyrimidinyl)-N-(5-cyclobutyl-4-(4,6-dimethoxy-5-pyrimidinyl)-4H-1,2,4-triazol-3-yl)-2-butanesulfonamide]  1.7 nM
8. COc1cccc(OC)c1-n1c(NS(=O)(=O)[C@@H](C)[C@H](OC)c2ncc(Cl)cn2)nnc1C1CC2(CCC2)C1 [Example 236.0, (1R,2S)-1-(5-chloro-2-pyrimidinyl)-N-(4-(2,6-dimethoxyphenyl)-5-(spiro[3.3]heptan-2-yl)-4H-1,2,4-triazol-3-yl)-1-methoxy-2-propanesulfonamide]  0.99 nM
